In US10391113B2, “Compatible composition containing chinese medicine cichorium glandulosum boiss et hout as lipid-lowering active ingredient” (Nanjing Ruiying Runze Biopharmaceutical Technology Co., Inc., priority 2014, dated 2019):

Experiments:
rat primary hepatocyte = experiment: Influence on the lipid droplet content of the rat primary hepatocyte (FFA hyperlipidemia model, nile red, flow detection); assay type: cell-based, SD rat; details: administration dose 20 μM total molar concentration; 1 mmol/L FFA; 24 hours; means ± s.d., n = 3; versus model group
Procedure: The hepatocyte is taken out from the SD rat liver by using Seglen two steps in situ circulatory perfusion method, filtered through 100-mesh sieve, centrifugated for 3 min at 500 rpm and 4° C., and the supernatant is discarded, and the hepatocyte is washed three times in the same way. The number of living cells and the cell survival rate is obtained by counting the cell, and the cells are added in the plate at 1.0*10^6 cell/mL medium. The cells are cultured for 24 hours, then the supernatant is discarded, and the cells are washed with PBS three times. […] Other groups are adjusted to a final volume of 2 mL with Williams'E medium without serum, and 24 hours after administration, washed with PBS in 37° C. three times, digested by the pancreatin, centrifugated, the supernatant is discarded, the cells are resuspended with PBS, and the final concentration is adjusted to 1 μg/mL by adding nile red dye. […] Using D-Optimal experimental design method in the mixture experimental design, calculation is carried out by using response surface analysis method and using Design expert8.05b software. Choosing D-optimal in the Mixture option, analysis is carried out by entering compatible ratio of the compatible groups and the test results in Table 2.

HepG2 cell = experiment: Lipid droplet content of free fat acid (FFA) induced HepG2 cell (nile red, flow detection); assay type: cell-based; details: 24 hours, geometric median of fluorescence intensity, means ± s.d., n = 3, model group 222.64 ± 8.34
Procedure: Experiment method: the HepG2 cells in the logarithmic growth phase are taken having a growth density of 80%, and inoculated into 6-well plate at 1×10^5 per well. After culturing cells for 24 hours, the supernatant is discarded, and the cells are washed with PBS three times. […] Except for the blank control group, all of the other groups are added FFA having a final concentration of 1 mmol/L, and the remaining volume is completed to 2 mL with the DMEM medium containing 10% fetal bovine serum, 24 hours after administration, washed with PBS in 37° C. three times, digested by the pancreatin, centrifugated, the supernatant is discarded, the cells are resuspended with PBS, and the final concentration is adjusted to 1 μg/mL by adding nile red dye.

[1] = tested on: high fat diet induced rat lipid metabolism disorder model; experiment: High fat diet induced rat lipid metabolism disorder model; assay type: in vivo, SD rat; details: 0.1 g/kg by gavage once a day, high fat feedstuff, after the eighth week
Procedure: Experiment method: 90 SD rats are normally fed for 1 week, the normal group of 10 rats are fed common feedstuff, and others are fed high fat feedstuff (basic feedstuff 88%, lard 10% and cholesterol 2%). 4 weeks later, the rats fed high fat feedstuff are randomly divided into 5 groups, each group of 10. […] The rats in the bezafibrate group are fed bezafibrate 100 mg/kg at the same time as the high fat feedstuff feeding respectively. The tested sample groups are given 100 mg/kg by gavage respectively at the same time as the high fat feedstuff feeding, once a day. The experiment animals can freely drink water and take food, and are fed separately in cages in light and dark for 12 hours, respectively, in a SPF grade animal lab under 25±2° C. After the eighth week of the experiment, the rats are fasted for 16 hours, collected blood from arteria cruralis, sacrificed by dislocating the cervical vertebra, taking out the liver, and preparing serum and liver tissue homogenate in conventional method. The triglyceride (TG), total cholesterol (TC), high density lipoprotein (HDL-C), low density lipoprotein (LDL-C), glutamic-pyruvic transaminase (ALT) and glutamic-oxalacetic transaminase (AST) content in the serum and liver is detected.

[2] = administration dose 20 μM, 1 mM FFA

O=c1c(O)c(-c2ccc(O)c(O)c2)oc2cc(O)cc(O)c12 [quercetin]
decrease of the lipid droplet content (%) (rat primary hepatocyte): 7.01 ± 1.03% | lipid droplet content (HepG2 cell; [2]): 198.25 ± 6.04

O=c1c(O[C@@H]2O[C@H](CO)[C@@H](O)[C@H](O)[C@H]2O)c(-c2ccc(O)c(O)c2)oc2cc(O)cc(O)c12 [isoquercitrin]
decrease of the lipid droplet content (%) (rat primary hepatocyte): 7.52 ± 1.63% | lipid droplet content (HepG2 cell; [2]): 200.61 ± 8.43

O=C(O)[C@H]1O[C@@H](Oc2c(-c3ccc(O)c(O)c3)oc3cc(O)cc(O)c3c2=O)[C@H](O)[C@@H](O)[C@@H]1O [quercetin-3-O-β-D-glucuronide]
decrease of the lipid droplet content (%) (rat primary hepatocyte): 8.07 ± 0.92% | lipid droplet content (HepG2 cell; [2]): 153.38 ± 2.88

CC(C)(Oc1ccc(CCNC(=O)c2ccc(Cl)cc2)cc1)C(=O)O [bezafibrate]
Weight [1]: 433.15 ± 24.53 g | ALT (U/L) ([1]; listed under liver): 107.9 ± 14.12 U/L | AST (U/L) ([1]; listed under liver): 217.8 ± 33.93 U/L | liver TC (mg/g liver) ([1]; liver): 33 ± 12.23 mg/g liver | liver TG (mg/g liver) ([1]; liver): 186 ± 37.92 mg/g liver | serum HDL-C ([1]; serum): 1.58 ± 0.29 mmol/L | serum LDL-C ([1]; serum): 0.54 ± 0.30 mmol/L | serum TC ([1]; serum): 1.58 ± 0.17 mmol/L | serum TG ([1]; serum): 0.88 ± 0.19 mmol/L | lipid droplet content (HepG2 cell; administration dose 100 μM): 178.84 ± 2.84
